Source: ChEMBL document CHEMBL3885861, “Open TG-GATES”

Organism: Rattus norvegicus
Assay: Open TG-GATES - Regimen: Single
Type: toxicity, organism-based, Sprague-Dawley
Design: regimen Single, gender Male, age 6 weeks
Details: in vivo, po, 300 mg/kg, route gavage, dose level Middle; for APTT / Bas / Eos / Fbg / Hb / Ht / Lym / MCH / MCHC / MCV / Mono / Neu / PT / Plat / RBC / Ret / WBC: tissue Blood; for KIDNEY_L / KIDNEY_R / KIDNEY_TOTAL: tissue Kidney; for LIVER: tissue Liver; for A/G / ALP / ALT / AST / BUN / CRE / Ca / Cl / DBIL / GLC / IP / K / LDH / Na / PL / RALB / TBIL / TC / TG / TP / gamma-GTP: tissue Plasma

CN/C(=N/CCSCc1nc[nH]c1C)NC#N [CIMETIDINE]
TERMINAL_BW (3 h): 213.9 g
APTT (3 h): 17.7 s
Bas (3 h): 0%
Eos (3 h): 0.8%
Fbg (3 h): 212 mg/dL
Hb (3 h): 12.6 g/dL
Ht (3 h): 37.5%
Lym (3 h): 77.6%
MCH (3 h): 21.5 pg
MCHC (3 h): 33.7%
MCV (3 h): 63.8 fL
Mono (3 h): 3%
Neu (3 h): 17.2%
PT (3 h): 12.8 s
Plat (3 h): 128.8 x10_4/uL
RBC (3 h): 587.2 x10_4/ul
Ret (3 h): 8.2%
WBC (3 h): 84.3 x10_2/uL
KIDNEY_L (3 h): 1 g
KIDNEY_R (3 h): 0.9 g
KIDNEY_TOTAL (3 h): 1.9 g
LIVER (3 h): 10.5 g
A/G (3 h): 1.6
ALP (3 h): 1248.6 IU/L
ALT (3 h): 37.4 IU/L
AST (3 h): 68.6 IU/L
BUN (3 h): 10.8 mg/dL
CRE (3 h): 0.4 mg/dL
Ca (3 h): 10.7 mg/dL
Cl (3 h): 103.4 meq/L
DBIL (3 h): 0.072 mg/dL
GLC (3 h): 191.2 mg/dL
IP (3 h): 8.8 mg/dL
K (3 h): 4.1 meq/L
LDH (3 h): 155.6 IU/L
Na (3 h): 140.8 meq/L
PL (3 h): 158 mg/dL
RALB (3 h): 3.3 g/dL
TBIL (3 h): 0.1 mg/dL
TC (3 h): 83 mg/dL
TG (3 h): 57 mg/dL
TP (3 h): 5.4 g/dL
gamma-GTP (3 h): 1.4 IU/L
TERMINAL_BW (6 h): 209.1 g
APTT (6 h): 19.5 s
Bas (6 h): 0%
Eos (6 h): 1%
Fbg (6 h): 224 mg/dL
Hb (6 h): 13 g/dL
Ht (6 h): 37.3%
Lym (6 h): 72.4%
MCH (6 h): 21.6 pg
MCHC (6 h): 34.8%
MCV (6 h): 62.2 fL
Mono (6 h): 3.4%
Neu (6 h): 22.6%
PT (6 h): 13.4 s
Plat (6 h): 134.4 x10_4/uL
RBC (6 h): 600.8 x10_4/ul
Ret (6 h): 7.9%
WBC (6 h): 100.3 x10_2/uL
KIDNEY_L (6 h): 1 g
KIDNEY_R (6 h): 1 g
KIDNEY_TOTAL (6 h): 1.9 g
LIVER (6 h): 9.3 g
A/G (6 h): 1.7
ALP (6 h): 926.2 IU/L
ALT (6 h): 38.2 IU/L
AST (6 h): 68 IU/L
BUN (6 h): 8.4 mg/dL
CRE (6 h): 0.4 mg/dL
Ca (6 h): 10.4 mg/dL
Cl (6 h): 103.2 meq/L
DBIL (6 h): 0.068 mg/dL
GLC (6 h): 185 mg/dL
IP (6 h): 9.6 mg/dL
K (6 h): 3.8 meq/L
LDH (6 h): 148.6 IU/L
Na (6 h): 141 meq/L
PL (6 h): 138.2 mg/dL
RALB (6 h): 3.4 g/dL
TBIL (6 h): 0.1 mg/dL
TC (6 h): 70.2 mg/dL
TG (6 h): 60 mg/dL
TP (6 h): 5.5 g/dL
gamma-GTP (6 h): 1.4 IU/L
TERMINAL_BW (9 h): 208.3 g
APTT (9 h): 20.6 s
Bas (9 h): 0%
Eos (9 h): 0.8%
Fbg (9 h): 214.4 mg/dL
Hb (9 h): 12.6 g/dL
Ht (9 h): 36.5%
Lym (9 h): 80.2%
MCH (9 h): 21.6 pg
MCHC (9 h): 34.5%
MCV (9 h): 62.6 fL
Mono (9 h): 2.6%
Neu (9 h): 15.6%
PT (9 h): 13.9 s
Plat (9 h): 126.2 x10_4/uL
RBC (9 h): 583.4 x10_4/ul
Ret (9 h): 7.8%
WBC (9 h): 70.7 x10_2/uL
KIDNEY_L (9 h): 1 g
KIDNEY_R (9 h): 1 g
KIDNEY_TOTAL (9 h): 1.9 g
LIVER (9 h): 8.8 g
A/G (9 h): 1.7
ALP (9 h): 807.2 IU/L
ALT (9 h): 31 IU/L
AST (9 h): 58.6 IU/L
BUN (9 h): 9.8 mg/dL
CRE (9 h): 0.4 mg/dL
Ca (9 h): 10.3 mg/dL
Cl (9 h): 102 meq/L
DBIL (9 h): 0.068 mg/dL
GLC (9 h): 189.8 mg/dL
IP (9 h): 10.3 mg/dL
K (9 h): 3.9 meq/L
LDH (9 h): 115.6 IU/L
Na (9 h): 141 meq/L
PL (9 h): 136 mg/dL
RALB (9 h): 3.4 g/dL
TBIL (9 h): 0.1 mg/dL
TC (9 h): 72.4 mg/dL
TG (9 h): 36.4 mg/dL
TP (9 h): 5.5 g/dL
gamma-GTP (9 h): 1.6 IU/L
TERMINAL_BW (24 h): 223.6 g
APTT (24 h): 19.1 s
Bas (24 h): 0%
Eos (24 h): 0.8%
Fbg (24 h): 214.8 mg/dL
Hb (24 h): 13.5 g/dL
Ht (24 h): 40.7%
Lym (24 h): 82.2%
MCH (24 h): 21.5 pg
MCHC (24 h): 33.3%
MCV (24 h): 64.5 fL
Mono (24 h): 2.2%
Neu (24 h): 13.6%
PT (24 h): 12.7 s
Plat (24 h): 126.7 x10_4/uL
RBC (24 h): 631.2 x10_4/ul
Ret (24 h): 6.5%
WBC (24 h): 86.6 x10_2/uL
KIDNEY_L (24 h): 1 g
KIDNEY_R (24 h): 1 g
KIDNEY_TOTAL (24 h): 2 g
LIVER (24 h): 10.7 g
A/G (24 h): 1.6
ALP (24 h): 1056 IU/L
ALT (24 h): 35.8 IU/L
AST (24 h): 67.8 IU/L
BUN (24 h): 15.4 mg/dL
CRE (24 h): 0.4 mg/dL
Ca (24 h): 10.9 mg/dL
Cl (24 h): 102.2 meq/L
DBIL (24 h): 0.09 mg/dL
GLC (24 h): 200.8 mg/dL
IP (24 h): 7.4 mg/dL
K (24 h): 3.9 meq/L
LDH (24 h): 183.4 IU/L
Na (24 h): 140.8 meq/L
PL (24 h): 159.8 mg/dL
RALB (24 h): 3.5 g/dL
TBIL (24 h): 0.2 mg/dL
TC (24 h): 77.8 mg/dL
TG (24 h): 94 mg/dL
TP (24 h): 5.6 g/dL
gamma-GTP (24 h): 1.6 IU/L
